Measured values reported in patent US4243672A, “5-Substituted 2-pyrroleglyoxylic acids, 5-substituted 2-pyrrolylglycines and derivatives thereof” (Pfizer Inc., priority 1978, dated 1981).
Counter-ions that a name gives are not always drawn.

What was measured:
[1] = test system: pyruvate dehydrogenase enzyme (PDH); assay: Proportion of active pyruvate dehydrogenase (PDHa/PDHt) in hearts of fat-fed rats after dosing; format: in vivo, rat; settings: heart, after 1.5 hours
Description: Rats fed on a high fat diet as in the previous test, are treated either with placebo or with the compound of formula (I) or (II) by subcutaneous or intravenous injection or by oral administration. After 1.5 hours the rat hearts are removed and homogenized under conditions which minimize changes in the proportion of the pyruvate dehydrogenase enzyme (PDH) which is present in the active form, as described by Whitehouse and Randle [Biochem. J., 134, 651 (1973)]. The total amount of enzyme present (PDHt) and the amount which is present in the active form (PDHa) are assessed by a method similar to that described by Taylor et al. [J. Biol. Chem., 248, 73 (1973)]. The fat-feeding process is found to depress the ratio PDHa/PDHt from a normal value of about 0.7 to a value in the range from 0.05 to 0.2. Treatment of fat-fed rats with the compounds of formula (I) or (II) either parenterally or orally, increases this ratio in a dose dependent manner.
The increase in the PDHa/PDHt ratio affected by various of the compounds for the Examples at the dose level indicated is shown in the following Table: The compounds were administered by subcutaneous injection except where indicated by (0) where the compounds were administered orally.

[2] = test system: diaphragm tissue from fat-fed rats; assay: Pyruvate oxidation by diaphragm tissue from fat-fed rats (14C-pyruvate into CO2) in vitro; format: cell-based; settings: Rattus norvegicus, stimulation of pyruvate oxidation, concentration 0.5 mmolar
Description: Diaphragm tissue is obtained from rats fed on a high fat diet similar to 'Diet B' described by Zaragoza and Felber [Horm, Metab. Res., 2, 323 (1970)]. Pyruvate oxidation by such tissue is assessed by measurement of the rate of incorporation of carbon-14 from carbon-14-labelled pyruvate into carbon dioxide in vitro, as described by Bringolf [Eur. J. Biochem., 26, 360 (1972)]. The rate of pyruvate oxidation is depressed by 50-75% compared with that by diaphragm tissue from rats fed on a normal diet. When the compounds of the invention are added to the medium, they are found to stimulate pyruvate oxidation by diaphragm tissue from fat-fed rats in a dose dependent manner.

heart = assay: Myocardial blood flow and metabolism in fasted, closed-chest, anaesthetized, electrically paced beagle dogs; format: in vivo; settings: 0.02 to 0.1 millimole/kg. intravenously
Description: The ability of compounds of formula (I) or (II) to reduce oxygen demand and affect the relative utilization of carbohydrate and lipid metabolites in the heart has been assessed by measuring the effect of the compounds on myocardial blood flow and metabolism in fasted, closed-chest, anaesthetized beagle dogs, with cardiac catherization to enable simultaneous sampling of coronary sinus and arterial blood to be carried out. Coronary sinus blood flow is measured by the hydrogen gas clearance technique described by Aukland et al. [Circulation Res., 14, 164 (1964)]. The heart is paced electrically at 155 beats/minute and recordings of hemodynamic parameters (blood pressure, left ventricular pressure and the first derivative of the latter) are made continuously. Control measurement of coronary blood flow are made and samples of blood taken at 40 minute intervals, both in an untreated animal and in the same animal dose with an infusion of isoprenaline (60 ng./kg./min.), which both stimulates cardiac contraction and increases plasma free fatty acid levels. The compound of formula (I) or (II) is then administered intravenously and measurements are made and samples taken again, 40 minutes and 90 minutes later. The blood samples from the artery and coronary sinus are analyzed for oxyhemoglobin, pyruvate and free fatty acid (FFA) content, differences between those of the arterial and coronary sinus blood, when multiplied by coronary blood flow, being a measure of oxygen consumption, pyruvate uptake and FFA uptake by the myocardium respectively.

[3] = 0.6 mMol/kg., administered orally (0)
[4] = 0.6 mMol/kg., subcutaneous injection
[5] = 0.3 mMol/kg., administered orally (0)
[6] = 1.2 mMol/kg., subcutaneous injection
[7] = 0.3 mMol/kg., subcutaneous injection

NC(C(=O)O)c1ccc(CC2CC2)[nH]1 (racemic) [Example 59, DL-2-(5-Cyclopropylmethyl-2-pyrrolyl)glycine]
PDHa/PDHt ratio [1, 3]: 0.21
activation at 500 µM [2]: 29%

CCc1ccc(C(N)C(=O)O)[nH]1 (racemic) [Example 60, DL-2-(5-Ethyl-2-pyrrolyl)glycine]
PDHa/PDHt ratio [1, 4]: 0.16
activation at 500 µM [2]: 59%

CCCCCc1ccc(C(N)C(=O)O)[nH]1 (racemic) [Example 61, DL-2-(5-n-Pentyl-2-pyrrolyl)glycine]
PDHa/PDHt ratio [1, 3]: 0.13
activation at 500 µM [2]: 84%

NC(=O)C(N)c1ccc(CC2CC2)[nH]1 (racemic) [Example 64, DL-2-(5-Cyclopropylmethyl-2-pyrrolyl)glycinamide]
PDHa/PDHt ratio [1, 4]: 0.27
activation at 500 µM [2]: 87%
effect on myocardial blood flow or any of the hemodynamic parameters measured (heart): no significant affect
myocardial glucose uptake (heart): increased
decrease of myocardial oxygen consumption (heart; in the presence of isoprenaline): about 20%
increase of myocardial pyruvate uptake (heart; presence and absence of isoprenaline, for at least 40 minutes after dosing): at least 2 fold

CCOC(=O)C(=O)c1ccc(C)[nH]1 [Example 1, 5-Methyl-2-pyrrolylglyoxylic Acid Ethyl Ester]
activation at 500 µM [2]: 32%

CCOC(=O)C(=O)c1ccc(C(C)(C)C)[nH]1 [Example 2]
activation at 500 µM [2]: 50%

CCCCc1ccc(C(=O)C(=O)OCC)[nH]1 [Example 6]
PDHa/PDHt ratio [1, 5]: 0.23

CCOC(=O)C(=O)c1ccc(CC(C)C)[nH]1 [Example 9]
activation at 500 µM [2]: 65%

CCOC(=O)C(=O)c1ccc(Cc2ccccc2)[nH]1 [Example 18]
activation at 500 µM [2]: 19%

CCc1ccc(C(=O)C(=O)O)[nH]1 [Example 20, 5-Ethyl-2-Pyrrolylglyoxylic Acid]
PDHa/PDHt ratio [1, 6]: 0.85
activation at 500 µM [2]: 66%

O=C(O)C(=O)c1ccc(CC2CC2)[nH]1 [Example 21, 5-Cyclopropylmethyl-2-pyrrolylglyoxylic Acid Sodium Salt]
PDHa/PDHt ratio [1, 7]: 0.44
PDHa/PDHt ratio [1, 4]: 0.71
activation at 500 µM [2]: 147%

Cc1ccc(C(=O)C(=O)O)[nH]1 [Example 22]
PDHa/PDHt ratio [1, 6]: 0.84
activation at 500 µM [2]: 51%

CCCc1ccc(C(=O)C(=O)O)[nH]1 [Example 23]
PDHa/PDHt ratio [1, 4]: 0.66
PDHa/PDHt ratio [1, 6]: 0.82
activation at 500 µM [2]: 78%

CCCCc1ccc(C(=O)C(=O)O)[nH]1 [Example 24, 2-(5-n-butyl-2-pyrrolyl)glyoxylic acid]
PDHa/PDHt ratio [1, 7]: 0.42
activation at 500 µM [2]: 140%

CC(C)Cc1ccc(C(=O)C(=O)O)[nH]1 [Example 25]
PDHa/PDHt ratio [1, 4]: 0.45
PDHa/PDHt ratio [1, 6]: 1.00
activation at 500 µM [2]: 59%

CC(C)(C)c1ccc(C(=O)C(=O)O)[nH]1 [Example 26]
activation at 500 µM [2]: 31%

CCCCCc1ccc(C(=O)C(=O)O)[nH]1 [Example 27, 2-(5-n-amyl-2-pyrrolyl)glyoxylic acid]
PDHa/PDHt ratio [1, 4]: 0.13
activation at 500 µM [2]: 157%

CC(C)(C)Cc1ccc(C(=O)C(=O)O)[nH]1 [Example 28]
activation at 500 µM [2]: 88%

CCCCCCc1ccc(C(=O)C(=O)O)[nH]1 [Example 29, 2-(5-n-hexyl-2-pyrrolyl)glyoxylic acid]
PDHa/PDHt ratio [1, 5]: 0.40
activation at 500 µM [2]: 78%

CC(C)(C)CCc1ccc(C(=O)C(=O)O)[nH]1 [Example 30]
activation at 500 µM [2]: 44%

O=C(O)C(=O)c1ccc(CCC2CCCCC2)[nH]1 [Example 31]
PDHa/PDHt ratio [1, 5]: 0.20
activation at 500 µM [2]: 125%

O=C(O)C(=O)c1ccc(Cc2ccccc2)[nH]1 [Example 32]
PDHa/PDHt ratio [1, 4]: 0.16
PDHa/PDHt ratio [1, 6]: 0.83
activation at 500 µM [2]: 43%

O=C(O)C(=O)c1ccc(CCc2ccccc2)[nH]1 [Example 33]
PDHa/PDHt ratio [1, 7]: 0.13
activation at 500 µM [2]: 69%

CSc1ccc(C(=O)C(=O)O)[nH]1 [Example 34]
PDHa/PDHt ratio [1, 6]: 0.42
activation at 500 µM [2]: 53%

O=C(O)C(=O)c1ccc(CCC2C=CCC2)[nH]1 (centres unmarked) [Example 35]
PDHa/PDHt ratio [1, 7]: 0.18
activation at 500 µM [2]: 209%

O=C(O)C(=O)c1ccc(CC2CCCC2)[nH]1 [Example 36]
PDHa/PDHt ratio [1, 7]: 0.20
activation at 500 µM [2]: 154%

O=C(O)C(=O)c1ccc(CC2CCCCC2)[nH]1 [Example 37]
PDHa/PDHt ratio [1, 7]: 0.12
activation at 500 µM [2]: 124%

O=C(O)C(=O)c1ccc(CCC2CCCC2)[nH]1 [Example 38]
PDHa/PDHt ratio [1, 7]: 0.25
activation at 500 µM [2]: 80%

CCCSc1ccc(C(=O)C(=O)OCC)[nH]1 [Example 39, 5-n-Propylthio-2-pyrrolylglyoxylic Acid Ethyl Ester]
activation at 500 µM [2]: 44%

CCCSc1ccc(C(=O)C(=O)O)[nH]1 [Example 40, 5-n-Propylthio-2-pyrrolylglyoxylic Acid]
PDHa/PDHt ratio [1, 7]: 0.27
activation at 500 µM [2]: 80%
